{"source": "patent US7101900B2", "about": "“Benzyl amidoxime derivatives, intermediate products and method for their production and use as fungicides” (BASF Aktiengesellschaft, priority 1999, dated 2006)", "key": {"[1]": {"test_system": "powdery mildew of wheat (Erysiphe graminis forma specialis tritici)", "experiment": "Activity against mildew of wheat (protective spray test on wheat seedlings)", "assay_type": "in vivo", "conditions": "wheat seedlings c.v. Kanzler, dusted with spores 24 hours after spray coating dried, visual, total leaf area, after 7 days, untreated 95", "procedure": "Activity Against Mildew of Wheat\nLeaves of wheat seedlings c.v. “Kanzler” which had been grown in pots were sprayed to run off point with an aqueous preparation of active compound which had been prepared from a stock solution comprising 10% of active compound, 63% of cyclohexanone and 27% of emulsifier, and, 24 hours after the spray coating had dried on, dusted with spores of powdery mildew of wheat (Erysiphe graminis forma specialis tritici). The test plants were then placed in a greenhouse at 20–24° C. and 60–90% relative atmospheric humidity. After 7 days, the extent of the mildew development was determined visually in percent infection of the total leaf area."}, "[2]": {"test_system": "cucumber mildew (Sphaerotheca fuliginea)", "experiment": "Protective activity against cucumber mildew (spray test on cucumber seedlings)", "assay_type": "in vivo", "conditions": "cucumber seedlings c.v. Chinesische Schlange, inoculated 20 hours after spray coating dried, visual, total leaf area, after 20 days, untreated 90", "procedure": "Protective Activity Against Cucumber Mildew\nAt the two-leaf stage, leaves of cucumber seedlings c.v. “Chinesische Schlange” which had been grown in pots were sprayed to run off point with an aqueous preparation of active compound which had been prepared from a stock solution comprising 10% of active compound, 63% of cyclohexanone and 27% of emulsifier. 20 hours after the spray coating had dried on, the plants were inoculated with an aqueous spore suspension of cucumber mildew (Sphaerotheca fuliginea). The plants were then cultivated in a greenhouse at 20–24° C. and 60–80% relative atmospheric humidity for 20 days. The extent of the mildew development was then determined visually in % infection of the total leaf area."}}}
{"compound": "O=C(Cc1ccccc1)NC(Cc1c(F)cccc1Cl)=NOCC1CC1", "note": "[No. 2, O-cyclopropylmethyl N-phenylacetyl-(2-chloro-6-fluorophenyl)-acetamidoxime]", "values": [{"measurement": "% infection of the leaves after application of an aqueous preparation comprising 16 ppm of active compound", "setting": "[1]", "value": 3, "unit": "%"}, {"measurement": "% infection of the leaves after application of an aqueous preparation comprising 63 ppm of active compound", "setting": "[2]", "value": 10, "unit": "%"}]}
{"compound": "O=C(Cc1ccccc1)NC(Cc1c(Cl)cccc1Cl)=NOCC1CC1", "note": "[No. 1, O-cyclopropylmethyl N-phenylacetyl-(2,6-dichlorophenyl)-acetamidoxime]", "values": [{"measurement": "% infection of the leaves after application of an aqueous preparation comprising 16 ppm of active compound", "setting": "[1]", "value": 3, "unit": "%"}, {"measurement": "% infection of the leaves after application of an aqueous preparation comprising 63 ppm of active compound", "setting": "[2]", "value": 10, "unit": "%"}]}
